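In this assay, cells in 96-well plates receive the compound at five concentrations for 48 hours. Endpoints are linearly interpolated between the surrounding concentrations. GI50 is the concentration that inhibits growth by half.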 Active and inactive are the calls of the source. No stated cut-off is given here; in the data, active = GI50 up to about 1.1 µM and inactive = higher.
How the values were obtained:
Test in all cases: growth of human tumour cells (NCI), 48 h
HOP-18 = test system: HOP-18
KM-20L2 = test system: KM-20L2
DMS-273 = test system: DMS-273
RXF 631 = test system: RXF 631
SNB-78 = test system: SNB-78
DMS-114 = test system: DMS-114
XF498 = test system: XF498
DLD-1 = test system: DLD-1

Measured: GI50

CN(C)CC1CC/C(=C\c2ccc(Cl)cc2)C1=O (configuration not stated)
inactive: HOP-18 18.2 µM | KM-20L2 12.1 µM | DMS-273 3.85 µM | RXF 631 20.4 µM | SNB-78 16.3 µM | DMS-114 7.52 µM | XF498 7.66 µM | DLD-1 3.71 µM

Cc1cc2nc(O)c(CCC(=O)O)nc2cc1C
inactive: HOP-18 > 100 µM | KM-20L2 > 100 µM | RXF 631 > 100 µM | SNB-78 > 100 µM | DMS-114 35.6 µM | XF498 > 100 µM | DLD-1 > 100 µM

CSC(=O)C[C@@]12O[C@@H]([C@@H](C)C3CCC4[C@@H]5C(O)CC6=CC(=O)C=C[C@]6(C)C5CC[C@@]43C)C[C@](C)(O1)C(C)(C)O2 (some centres not stated)
inactive: DMS-273 15.9 µM | RXF 631 19.8 µM | SNB-78 15.5 µM | DMS-114 5.81 µM | XF498 14.7 µM

O=C(NCO)NCOCn1c(=O)n(CO)c(=O)n(CO)c1=O
inactive: HOP-18 > 100 µM | KM-20L2 38.6 µM | RXF 631 > 61.7 µM | SNB-78 28.4 µM | DMS-114 34.4 µM | XF498 23.2 µM | DLD-1 24.9 µM

O=C1C(c2ccccc2)=[N+]([O-])c2ccc(Cl)cc21
inactive: HOP-18 29.6 µM | KM-20L2 35.1 µM | RXF 631 32.7 µM | DMS-114 12.8 µM | XF498 19 µM | DLD-1 19 µM

CC12CC/C(=N/NC(N)=O)C3C1CCCC32
inactive: HOP-18 > 100 µM | KM-20L2 > 100 µM | DMS-273 > 100 µM | RXF 631 > 100 µM | DMS-114 > 100 µM | DLD-1 > 100 µM

NCCSc1cc(O)c2c(c1N)C(=O)c1ccccc1C2=O
inactive: KM-20L2 5.51 µM | RXF 631 25.2 µM | SNB-78 32.1 µM | XF498 21.8 µM | DLD-1 30.3 µM

CCOC(=O)c1csc(CCCCCCc2nc(C(=O)OCC)cs2)n1
inactive: HOP-18 75.5 µM | KM-20L2 > 100 µM | DMS-273 41.2 µM | RXF 631 > 87.7 µM | SNB-78 45.3 µM | XF498 26.7 µM | DLD-1 > 61.4 µM

C1CN(P2(N3CC3)=NP(N3CC3)(N3CC3)=NP(N3CC3)(N3CC3)=N2)CCO1 (configuration not stated) [FOTRETAMINE]
inactive: HOP-18 > 100 µM | KM-20L2 > 100 µM | DMS-273 32.4 µM | SNB-78 > 100 µM | DMS-114 80.7 µM | XF498 > 100 µM | DLD-1 > 53.5 µM

Cc1ccc2nc(NC(=O)C(=O)C(C#N)c3nc4ccccc4s3)sc2c1 (configuration not stated)
inactive: HOP-18 11.6 µM | KM-20L2 28 µM | DMS-273 28.4 µM | RXF 631 44.7 µM | SNB-78 36.3 µM | DMS-114 24.8 µM | XF498 28.8 µM

COC(=O)C1=Cc2cc(OC)c(OC)c(OC)c2[C@H](c2cc(OC)c(OC)c(OC)c2)C1C(=O)OC (some centres not stated)
inactive: KM-20L2 > 100 µM | DMS-273 > 100 µM | RXF 631 > 100 µM | SNB-78 > 100 µM | DMS-114 > 100 µM | XF498 > 100 µM | DLD-1 > 100 µM

COc1ccc(/C=C/C(=O)c2sc(-c3cccnc3)nc2C)cc1
inactive: HOP-18 45.3 µM | KM-20L2 56.4 µM | DMS-273 40.9 µM | RXF 631 54.3 µM | SNB-78 > 100 µM | DMS-114 26.7 µM | DLD-1 39.4 µM

CC(C)CCC[C@@H](C)C1CCC2[C@@H]3CC=C4C[C@@H](C(=O)NCC[N+](C)(C)CCCS(=O)(=O)[O-])CC[C@]4(C)C3CC[C@@]21C (some centres not stated)
inactive: HOP-18 17.7 µM | KM-20L2 16.4 µM | DMS-273 17 µM | RXF 631 18.4 µM | SNB-78 18.8 µM | DMS-114 19.9 µM | DLD-1 22.4 µM

N#[N+][c-]1c(-c2ccccc2)n[nH]c1=O
inactive: KM-20L2 > 100 µM | DMS-273 > 100 µM | RXF 631 > 100 µM | DMS-114 > 100 µM | XF498 > 100 µM | DLD-1 > 100 µM

Source: ChEMBL document CHEMBL1201862, “PubChem BioAssay data set” (2004)
